From article PMC5907623 (Cancer Chemotherapy and Pharmacology, 2018)

Columns and labels:
[1] = Part A: steady-state PK of AZD5363 tablet versus capsule, partially fasted, in patients with advanced solid malignancies; assay type: in vivo, human
Description: PK parameters were assessed on the fourth day of Week 1 and Week 2 (i.e. on Day 4 and Day 11). […] In addition, pre-dose samples were drawn on Day 8 in Part B to verify that a washout period of 3.5 days was adequate for AZD5363. […] Following the addition of internal standard ([^13C6]AZ12886380), calibration, quality control (QC) and study samples (25 µL) were processed by solid-phase extraction then assayed for AZD5363 by liquid chromatography–tandem mass spectrometry. […] All trial samples were analysed within the known stability period for AZD5363 and all a priori assay acceptance criteria were met, in accordance with regulatory guidance. […] PK parameters were derived using non-compartmental methods (Phoenix® WinNonlin®). Plasma concentration–time profiles were analysed to determine Cmax, Cmin and tmax, while AUCτ was determined from application of the linear-up/log-down trapezoidal rule. […] The statistical analysis for estimating the food and capsule effect was based on analysing log-transformed PK parameters AUCτ and Cmax using a fixed-effects model with terms for patient and treatment only. […] Other PK parameters are presented descriptively.

[2] = Part B: effect of food (overnight fast versus standardized meal) on steady-state PK of AZD5363 tablet in patients; assay type: in vivo, human; conditions: for AUCτ, Gmean (CV%) / Cmax, Gmean (CV%) / Cmin, Gmean (CV%) / tmax, median (range): tablet 480 mg bid, steady state, N = 9
Description: (§1) Patients had been fasting overnight prior to the breakfast and no further food was permitted for 4 h post-dose.
The bioanalytical method used to generate AZD5363 plasma concentration data for the derivation of PK parameters for the study had been previously validated, according to regulatory guidance, by Covance UK Ltd on behalf of AstraZeneca. Following the addition of internal standard ([^13C6]AZ12886380), calibration, quality control (QC) and study samples (25 µL) were processed by solid-phase extraction then assayed for AZD5363 by liquid chromatography–tandem mass spectrometry. […] All trial samples were analysed within the known stability period for AZD5363 and all a priori assay acceptance criteria were met, in accordance with regulatory guidance.
PK parameters were derived using non-compartmental methods (Phoenix® WinNonlin®). Plasma concentration–time profiles were analysed to determine Cmax, Cmin and tmax, while AUCτ was determined from application of the linear-up/log-down trapezoidal rule.
The statistical analysis for estimating the food and capsule effect was based on analysing log-transformed PK parameters AUCτ and Cmax using a fixed-effects model with terms for patient and treatment only. All statistical calculations and analyses were performed with SAS® software, version 9.1.3 or higher. Other PK parameters are presented descriptively.

[3] = Part A: safety and tolerability (adverse events, CTCAE v4.0) of AZD5363 tablet and capsule; assay type: in vivo, human
Description: PK parameters were assessed on the fourth day of Week 1 and Week 2 (i.e. on Day 4 and Day 11). […] Any AE occurring after the first dose of study treatment and up to 28 days after the last dose of study treatment was included in the AE summaries. The safety analysis set comprised all patients who received at least one dose of AZD5363. All safety data are presented descriptively.

[4] = Part B: safety and tolerability (adverse events, CTCAE v4.0) of AZD5363 tablet, fasted versus fed; assay type: in vivo, human; conditions: for Abdominal pain, All / Abdominal pain, Grade ≥ 3 / Anaemia, All / Anaemia, Grade ≥ 3 / Any AE (causally related), All / Any AE (causally related), Grade ≥ 3 / Any AE (irrespective of causality), All / Any AE (irrespective of causality), Grade ≥ 3 / Diarrhoea, All / Diarrhoea, Grade ≥ 3 / Hyperglycaemia, All / Hyperglycaemia, Grade ≥ 3 / Hypokalaemia, All / Hypokalaemia, Grade ≥ 3 / Pneumonia, All / Pneumonia, Grade ≥ 3 / Rash macular, All / Rash macular, Grade ≥ 3 / Rash maculopapular, All / Rash maculopapular, Grade ≥ 3 / Rash papular, All / Rash papular, Grade ≥ 3 / Skin discolouration, All / Skin discolouration, Grade ≥ 3: tablet
Description: as §1
Safety assessments throughout the study encompassed the incidence and severity of AEs (graded according to Common Terminology Criteria for Adverse Events [CTCAE] version 4.0), in addition to laboratory parameters (haematology, clinical chemistry, urinalysis), physical examination, 12-lead electrocardiography (ECG), and vital signs. To assess safety in the fed versus fasted state, the period during and just after the fasted day was considered relevant to the fasted dose (Days 4–7), and similarly, the fed day and subsequent days were considered relevant to the fed state (Days 11–14). Any AE occurring after the first dose of study treatment and up to 28 days after the last dose of study treatment was included in the AE summaries.
The safety analysis set comprised all patients who received at least one dose of AZD5363. All safety data are presented descriptively.

[5] = set-up: method as in PMID 29066505; conditions: cited from earlier work
[6] = Day 11, fed (standardized meal)
[7] = tablet, N = 9, 90% CI where printed in brackets
[8] = Day 15 onward, partially fasted, N = 12

## 4-amino-N-[(1S)-1-(4-chlorophenyl)-3-hydroxypropyl]-1-(7H-pyrrolo[2,3-d]pyrimidin-4-yl)piperidine-4-carboxamide [AZD5363]
[1]; Part A, estimated
  Intra-patient variability for AUCτ: 20%
  Intra-patient variability for Cmax: 22%
[1]; Parts A and B
  Intra-subject variability in AUCτ and Cmax: around 20 % CV
[2]; Day 8, 3 days after the last dose on Day 4
  Pre-dose plasma concentration, geometric least-squares mean: 3.34 ng/mL
[2]; Day 11
  Average steady-state concentration over the 12-h dosing interval (geometric mean AUCτ/12): 678 ng/mL
[2]; Day 4, overnight fasted
  AUCτ, Gmean (CV%): 9116 (16.8) h ng/mL
  Cmax, Gmean (CV%): 1842 (31.1) ng/mL
  Cmin, Gmean (CV%): 218.5 (30.3) ng/mL
  tmax, median (range): 0.6 (0.5–4) h
[2]; [6]
  AUCτ, Gmean (CV%): 8136 (33.9) h ng/mL
  Cmax, Gmean (CV%): 1239 (23.3) ng/mL
  Cmin, Gmean (CV%): 262.3 (58.6) ng/mL
  tmax, median (range): 2.0 (2–4.3) h
[2]; [7]
  AUCτ GLSM ratio fed:fasted: 0.89
  Cmax GLSM ratio fed:fasted: 0.67
[3]
  Changes in ECG findings, vital signs or physical examinations: no clinically significant changes
[3]; 7 of 18 patients, in two the events occurred before start of treatment
  Patients with serious AEs (SAEs): 38.9%
[3]; majority of patients, similar for tablet and capsule
  Plasma glucose (with plasma insulin and C-peptide): Elevations in plasma glucose
[4]; in six patients of 12
  Number of SAEs: 11
[4]; [8]
  Abdominal pain, All: 1 (8.3) Number of patients (%)
  Abdominal pain, Grade ≥ 3: 1 (8.3) Number of patients (%)
  Anaemia, All: 1 (8.3) Number of patients (%)
  Anaemia, Grade ≥ 3: 1 (8.3) Number of patients (%)
  Any AE (causally related), All: 10 (83.3) Number of patients (%)
  Any AE (causally related), Grade ≥ 3: 5 (41.7) Number of patients (%)
  Any AE (irrespective of causality), All: 12 (100.0) Number of patients (%)
  Any AE (irrespective of causality), Grade ≥ 3: 7 (58.3) Number of patients (%)
  Diarrhoea, All: 8 (66.7) Number of patients (%)
  Diarrhoea, Grade ≥ 3: 1 (8.3) Number of patients (%)
  Hyperglycaemia, All: 6 (50.0) Number of patients (%)
  Hyperglycaemia, Grade ≥ 3: 5 (41.7) Number of patients (%)
  Hypokalaemia, All: 1 (8.3) Number of patients (%)
  Hypokalaemia, Grade ≥ 3: 1 (8.3) Number of patients (%)
  Pneumonia, All: 1 (8.3) Number of patients (%)
  Pneumonia, Grade ≥ 3: 1 (8.3) Number of patients (%)
  Rash macular, All: 1 (8.3) Number of patients (%)
  Rash macular, Grade ≥ 3: 0 Number of patients (%)
  Rash maculopapular, All: 2 (16.7) Number of patients (%)
  Rash maculopapular, Grade ≥ 3: 2 (16.7) Number of patients (%)
  Rash papular, All: 0 Number of patients (%)
  Rash papular, Grade ≥ 3: 0 Number of patients (%)
  Skin discolouration, All: 1 (8.3) Number of patients (%)
  Skin discolouration, Grade ≥ 3: 1 (8.3) Number of patients (%)
[4]; Days 4–7, fasted dose, N = 12
  Abdominal pain, All: 0 Number of patients (%)
  Abdominal pain, Grade ≥ 3: 0 Number of patients (%)
  Anaemia, All: 1 (8.3) Number of patients (%)
  Anaemia, Grade ≥ 3: 0 Number of patients (%)
  Any AE (causally related), All: 4 (33.3) Number of patients (%)
  Any AE (causally related), Grade ≥ 3: 2 (16.7) Number of patients (%)
  Any AE (irrespective of causality), All: 5 (41.7) Number of patients (%)
  Any AE (irrespective of causality), Grade ≥ 3: 2 (16.7) Number of patients (%)
  Diarrhoea, All: 2 (16.7) Number of patients (%)
  Diarrhoea, Grade ≥ 3: 1 (8.3) Number of patients (%)
  Hyperglycaemia, All: 1 (8.3) Number of patients (%)
  Hyperglycaemia, Grade ≥ 3: 1 (8.3) Number of patients (%)
  Hypokalaemia, All: 0 Number of patients (%)
  Hypokalaemia, Grade ≥ 3: 0 Number of patients (%)
  Pneumonia, All: 0 Number of patients (%)
  Pneumonia, Grade ≥ 3: 0 Number of patients (%)
  Rash macular, All: 0 Number of patients (%)
  Rash macular, Grade ≥ 3: 0 Number of patients (%)
  Rash maculopapular, All: 1 (8.3) Number of patients (%)
  Rash maculopapular, Grade ≥ 3: 0 Number of patients (%)
  Rash papular, All: 0 Number of patients (%)
  Rash papular, Grade ≥ 3: 0 Number of patients (%)
  Skin discolouration, All: 0 Number of patients (%)
  Skin discolouration, Grade ≥ 3: 0 Number of patients (%)
[4]; Days 11–14, fed dose, N = 10
  Abdominal pain, All: 0 Number of patients (%)
  Abdominal pain, Grade ≥ 3: 0 Number of patients (%)
  Anaemia, All: 1 (10.0) Number of patients (%)
  Anaemia, Grade ≥ 3: 0 Number of patients (%)
  Any AE (causally related), All: 5 (50.0) Number of patients (%)
  Any AE (causally related), Grade ≥ 3: 4 (40.0) Number of patients (%)
  Any AE (irrespective of causality), All: 6 (60.0) Number of patients (%)
  Any AE (irrespective of causality), Grade ≥ 3: 4 (40.0) Number of patients (%)
  Diarrhoea, All: 3 (30.0) Number of patients (%)
  Diarrhoea, Grade ≥ 3: 2 (20.0) Number of patients (%)
  Hyperglycaemia, All: 1 (10.0) Number of patients (%)
  Hyperglycaemia, Grade ≥ 3: 1 (10.0) Number of patients (%)
  Hypokalaemia, All: 0 Number of patients (%)
  Hypokalaemia, Grade ≥ 3: 0 Number of patients (%)
  Pneumonia, All: 0 Number of patients (%)
  Pneumonia, Grade ≥ 3: 0 Number of patients (%)
  Rash macular, All: 1 (10.0) Number of patients (%)
  Rash macular, Grade ≥ 3: 1 (10.0) Number of patients (%)
  Rash maculopapular, All: 2 (20.0) Number of patients (%)
  Rash maculopapular, Grade ≥ 3: 2 (20.0) Number of patients (%)
  Rash papular, All: 1 (10.0) Number of patients (%)
  Rash papular, Grade ≥ 3: 1 (10.0) Number of patients (%)
  Skin discolouration, All: 0 Number of patients (%)
  Skin discolouration, Grade ≥ 3: 0 Number of patients (%)
[4]; up to 4 h post-dose
  Plasma glucose during the fasted period: no indication of glucose elevation
[5]; dose range 80–800 mg
  Dose proportionality of plasma exposure: approximately dose proportional
[5]; patients
  Dose excreted in urine as unchanged drug: less than 10%
  Terminal half life: approximately 10 h
